Earlier results as cited in article PMC3226709 (Journal of the American Chemical Society, 2011).

Tested on: GSTO1
Settings: read-out: IC50 for GSTO1 inhibition

IC50: 51 nM
SMILES: CC(=O)Oc1ccc2c(c1)Oc1cc(OC(C)=O)ccc1C21OC(=O)c2cc(CCl)ccc21 [CellTracker Green, 5-chloromethylfluorescein diacetate]
